Assay: recombinant barcode read abundance after kanamycin selection (control-corrected) (log10(CPM+1)); higher = more efficient recombination; sequences stand for … in AGTGCAGAGAAAATCGGCCAGTTTTCTCTGCCTGCAGTCCGCATGCCGT…AGATTTATGCAGCGGACTGCCTTTCTCCCAAAGTGATAAACCGGACAGTATCATGGACCGGTTTTCCCGGTAATCCGTATTTGCAAGGTTGGTTTCACT; site = the 11-nt target
In short: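 This pooled E. coli screen matched targets with IS621 bridge RNA target-binding loops. Plating was done in duplicate on chloramphenicol/ampicillin LB agar as a control and on chloramphenicol/ampicillin/kanamycin plus 0.1 mM IPTG. Recombination efficiency reflects barcode counts at recombinant junctions as counts per million, averaged and control-corrected. The figures are log10(CPM+1).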
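Further: IS621 recombinase and bridge RNA in Escherichia coli cells.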

Sequence	recombinant barcode read abundance (log10)
TATTGGACTTGGGTTCTAACCTGTTGCAC (site TATTGGACTGT)	0.0567
TATTGGACTTGGGTTCTAACCTGTTGCAC (site TATTGGACTTT)	0.0673
TATTGGACTTGGGTTCTAACCTGTTGCAT (site TATTGGACTAT)	0.421
TATTGGACTTGGGTTCTAACCTGTTGCAT (site TATTGGACTCT)	0.153
TATTGGACTTGGGTTCTAACCTGTTGCAT (site TATTGGACTGT)	0.155
TATTGGACTTGGGTTCTAACCTGTTGCAT (site TATTGGACTTT)	0.101
TATTGGACTTGGGTTCTAACCTGTTGCTT (site AATTGGACTAA)	0.0764
TATTGGACTTGGGTTCTAACCTGTTGCTT (site CATTGGACTAA)	0.0882
TATTGGACTTGGGTTCTAACCTGTTGCTT (site GATTGGACTAA)	0.0435
TATTGGACTTGGGTTCTAACCTGTTGCTT (site TATTGGACTAA)	0.141
TATTTGTCTTGGGTTCTAACCTGTTGCCA (site CACTTGTCTTG)	0.023
TATTTGTCTTGGGTTCTAACCTGTTGCCA (site TATTTGTCTTG)	0.156
TCAAGCCCTTGGGTTCTAACCTGTTGCAG (site CAGTCTACTAC)	0.011
TCAAGCCCTTGGGTTCTAACCTGTTGCAG (site TCAAGCCCTCT)	0.927
TCAAGGCCTTGGGTTCTAACCTGTTGCCT (site ACAAGGCCTAG)	0.147
TCAAGGCCTTGGGTTCTAACCTGTTGCCT (site CCAAGGCCTAG)	0.084
TCAAGGCCTTGGGTTCTAACCTGTTGCCT (site GCAAGGCCTAG)	0.106
TCAAGGCCTTGGGTTCTAACCTGTTGCCT (site TCAAGGCCTAG)	0.32
TCAATCCCTTGGGTTCTAACCTGTTGCCT (site TCAATCCCTAG)	0.326
TCAATCCCTTGGGTTCTAACCTGTTGCCT (site TCCATCCCTAG)	0.048
TCAATCCCTTGGGTTCTAACCTGTTGCCT (site TCGATCCCTAG)	0.173
TCAATCCCTTGGGTTCTAACCTGTTGCCT (site TCTATCCCTAG)	0.0124
TCACACACTTGGGTTCTAACCTGTTGCCT (site CTCAGACCTCA)	0.0319
TCACACACTTGGGTTCTAACCTGTTGCCT (site TCACACACTAG)	1.06
TCACCGCCTTGGGTTCTAACCTGTTGCCT (site ACACCGCCTAG)	0.75
TCACCGCCTTGGGTTCTAACCTGTTGCCT (site CCACCGCCTAG)	0.141

Sequence	recombinant barcode read abundance (log10)
TCACCGCCTTGGGTTCTAACCTGTTGCCT (site GCACCGCCTAG)	0.0186
TCACCGCCTTGGGTTCTAACCTGTTGCCT (site TCACCGCCTAG)	0.172
TCACCTGCTTGGGTTCTAACCTGTTGCCT (site TCACATGCTAG)	0.0199
TCACCTGCTTGGGTTCTAACCTGTTGCCT (site TCACCTGCTAG)	0.961
TCACCTGCTTGGGTTCTAACCTGTTGCCT (site TCACGTGCTAG)	0.192
TCACCTGCTTGGGTTCTAACCTGTTGCCT (site TCACTTGCTAG)	0.0607
TCACGTCCTTGGGTTCTAACCTGTTGCGG (site TCACGTCCTCC)	1.3
TCACGTCCTTGGGTTCTAACCTGTTGCGG (site TTACGTCCTCC)	0.0483
TCACGTGCTTGGGTTCTAACCTGTTGCCT (site TCACATGCTAG)	0.0819
TCACGTGCTTGGGTTCTAACCTGTTGCCT (site TCACCTGCTAG)	0.105
TCACGTGCTTGGGTTCTAACCTGTTGCCT (site TCACGTGCTAG)	0.563
TCACGTGCTTGGGTTCTAACCTGTTGCCT (site TCACTTGCTAG)	0.121
TCACTCTCTTGGGTTCTAACCTGTTGCCT (site TAACTCTCTAG)	0.111
TCACTCTCTTGGGTTCTAACCTGTTGCCT (site TCACTCTCTAG)	1.22
TCACTCTCTTGGGTTCTAACCTGTTGCCT (site TGACTCTCTAG)	0.0273
TCACTCTCTTGGGTTCTAACCTGTTGCCT (site TTACTCTCTAG)	0.062
TCACTTCCTTGGGTTCTAACCTGTTGCCT (site TCACCTTCTAG)	0.121
TCACTTCCTTGGGTTCTAACCTGTTGCCT (site TCACTTCCTAG)	0.0238
TCACTTGCTTGGGTTCTAACCTGTTGCCT (site TCACATGCTAG)	0.0105
TCACTTGCTTGGGTTCTAACCTGTTGCCT (site TCACCTGCTAG)	0.0436
TCACTTGCTTGGGTTCTAACCTGTTGCCT (site TCACGTGCTAG)	0.177
TCACTTGCTTGGGTTCTAACCTGTTGCCT (site TCACTTGCTAG)	0.215
TCAGAAGCTTGGGTTCTAACCTGTTGCCG (site ATGAGGCCTTA)	0.022
TCAGAAGCTTGGGTTCTAACCTGTTGCCG (site TCAGAAGCTCG)	0.689
TCAGCCTCTTGGGTTCTAACCTGTTGCCT (site CTGTGTCCTCC)	0.11
TCAGCCTCTTGGGTTCTAACCTGTTGCCT (site TCAGCCTCTAG)	1.72

Sequence	recombinant barcode read abundance (log10)
TCAGCGACTTGGGTTCTAACCTGTTGCCT (site TCAGCGACTAG)	0.481
TCAGCGACTTGGGTTCTAACCTGTTGCCT (site TCCGCGACTAG)	0.139
TCAGCGACTTGGGTTCTAACCTGTTGCCT (site TCGGCGACTAG)	0.27
TCAGCGACTTGGGTTCTAACCTGTTGCCT (site TCTGCGACTAG)	0.39
TCAGGAGCTTGGGTTCTAACCTGTTGCTA (site CATATGACTAG)	0.288
TCAGGAGCTTGGGTTCTAACCTGTTGCTA (site TCAGGAGCTTA)	0.325
TCATAGCCTTGGGTTCTAACCTGTTGCTG (site TCAAAGCCTCA)	0.131
TCATAGCCTTGGGTTCTAACCTGTTGCTG (site TCACAGCCTCA)	0.0283
TCATAGCCTTGGGTTCTAACCTGTTGCTG (site TCAGAGCCTCA)	0.087
TCATAGCCTTGGGTTCTAACCTGTTGCTG (site TCATAGCCTCA)	0.62
TCATATTCTTGGGTTCTAACCTGTTGCCT (site TCAAATTCTAG)	0.17
TCATATTCTTGGGTTCTAACCTGTTGCCT (site TCACATTCTAG)	0.0604
TCATATTCTTGGGTTCTAACCTGTTGCCT (site TCAGATTCTAG)	0.069
TCATATTCTTGGGTTCTAACCTGTTGCCT (site TCATATTCTAG)	0.0782
TCATGAACTTGGGTTCTAACCTGTTGCCT (site TCATGAACTAG)	0.256
TCATGAACTTGGGTTCTAACCTGTTGCCT (site TTATGATCTAG)	0.0186
TCATTAGCTTGGGTTCTAACCTGTTGCCG (site GGGCATCCTAT)	0.0935
TCATTAGCTTGGGTTCTAACCTGTTGCCG (site TCATTAGCTCG)	0.315
TCATTCGCTTGGGTTCTAACCTGTTGCCT (site TCATTCGCTAG)	0.857
TCATTCGCTTGGGTTCTAACCTGTTGCCT (site TCCTTAGCTAG)	0.186
TCCAAACCTTGGGTTCTAACCTGTTGCGG (site TCCAAACCTCC)	2.04
TCCAAACCTTGGGTTCTAACCTGTTGCGG (site TCCAACACTCC)	0.00629
TCCAGTCCTTGGGTTCTAACCTGTTGCTA (site TCCAGTCCTTA)	0.688
TCCAGTCCTTGGGTTCTAACCTGTTGCTA (site TCCATCCCTTA)	0.0632
TCCCAAACTTGGGTTCTAACCTGTTGCAC (site CTAACTGCTAC)	0.0667

Source: the supplement of paper PMC11208160
